A short description of series [1]: Pharmacokinetics in male cynomolgus monkeys, single subcutaneous administration. The format is in vivo, cynomolgus monkey. The following applies: 50 nmol/kg single SC, mean n = 2; for CL/F / Tmax / half-life: cynomolgus monkey, plasma. The method, then: The pharmacokinetics of select Examples are evaluated following a single subcutaneous administration of 50 nmol/kg to male cynomolgus monkeys. Blood samples are collected over 504 hours and resulting individual plasma concentrations are used to calculate pharmacokinetic parameters. Peptide plasma (K3 EDTA) concentrations are determined using a qualified LC/MS method that measured the intact mass of the compound. Each peptide and an analog as an internal standard are extracted from 100% cynomolgus monkey plasma using a protein precipitation method. Instruments are combined for LC/MS detection.

The target of series [2] is T1, human GcgR (Homo sapiens, UniProt P47871).
T1 construct: expressed in transfected cells; crude membranes
Put plainly: [125I]-Glucagon binding, SPA with WGA beads, 0.1% bacitracin. The conditions noted are these: geometric mean, read-out: hGcgR Ki. The procedure, abridged:
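SPA competition binding with WGA beads on crude membranes from HEK293 cells stably expressing hGcgR. Buffer: 25 mM HEPES pH 7.4, 2.5 mM CaCl2, 1 mM MgCl2, 0.1% bacitracin, 0.003% Tween-20; 10-point 3-fold dilutions, NSB with 1 μM Gcg.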

The target in series [3] is T2, human GIPR (Homo sapiens, UniProt P48546).
T2 construct: expressed in transfected cells; crude membranes
T2 sequence (P48546 22-466): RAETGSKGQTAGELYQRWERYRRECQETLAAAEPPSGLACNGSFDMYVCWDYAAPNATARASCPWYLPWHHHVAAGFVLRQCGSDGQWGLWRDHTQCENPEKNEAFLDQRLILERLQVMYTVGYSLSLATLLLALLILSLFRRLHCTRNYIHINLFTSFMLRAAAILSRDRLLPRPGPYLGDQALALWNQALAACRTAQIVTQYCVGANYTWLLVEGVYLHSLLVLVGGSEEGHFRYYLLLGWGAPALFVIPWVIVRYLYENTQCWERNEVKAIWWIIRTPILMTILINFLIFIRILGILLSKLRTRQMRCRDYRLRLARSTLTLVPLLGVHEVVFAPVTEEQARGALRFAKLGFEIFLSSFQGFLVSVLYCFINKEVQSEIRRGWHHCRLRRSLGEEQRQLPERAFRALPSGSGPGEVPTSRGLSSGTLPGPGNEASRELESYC
The experiment in a line: [125I]-GIP binding, SPA with WGA beads, 0.1% bacitracin. The conditions noted are these: geometric mean, read-out: hGIPR Ki. Summed up:
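Ki values are geometric means (SEM, n independent days), derived from four-parameter nonlinear regression of IC50. Membranes came from hGIPR-expressing CHO cells.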

Series [4] has as its target T3, human GLP-1R (Homo sapiens, UniProt P43220).
T3 construct: expressed in transfected cells; crude membranes
Put plainly: [125I]-GLP-1 binding, SPA with WGA beads, 0.1% bacitracin. The following applies: geometric mean, read-out: hGLP1R Ki. Summed up:
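Binding buffer was 25 mM HEPES pH 7.4 with 2.5 mM CaCl2, 1 mM MgCl2, 0.1% (w/v) bacitracin, 0.003% Tween-20 and EDTA-free protease inhibitors. Four-parameter regression gave IC50, converted to Ki (geometric mean, SEM, n independent days).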

*1 amine or outer side, *2 acyl side, *3 side chain or, on linkers, in order; H or OH if unused. Where a SMILES comes first, the peptide text is derived from it. Side-chain parts run from the residue outwards. [ ]: non-standard residue; d: D form. The star is where a group is joined. C20 diacid = O=C(O)CCCCCCCCCCCCCCCCCCC(=O)*; C18 diacid = O=C(O)CCCCCCCCCCCCCCCCC(=O)*; αMePhe(2-F) = C[C@](N)(Cc1ccccc1F)C(=O)O; γGlu = O=C(O)[C@H](CCC(=O)[*:2])N[*:1]; αMeL = CC(C)C[C@](C)(N)C(=O)O; Orn = NCCC[C@H](N)C(=O)O; AEEA = NCCOCCOCC(=O)O; Aib = CC(C)(N)C(=O)O Bounds are passed on as bounds.

T3 sequence (P43220 24-463): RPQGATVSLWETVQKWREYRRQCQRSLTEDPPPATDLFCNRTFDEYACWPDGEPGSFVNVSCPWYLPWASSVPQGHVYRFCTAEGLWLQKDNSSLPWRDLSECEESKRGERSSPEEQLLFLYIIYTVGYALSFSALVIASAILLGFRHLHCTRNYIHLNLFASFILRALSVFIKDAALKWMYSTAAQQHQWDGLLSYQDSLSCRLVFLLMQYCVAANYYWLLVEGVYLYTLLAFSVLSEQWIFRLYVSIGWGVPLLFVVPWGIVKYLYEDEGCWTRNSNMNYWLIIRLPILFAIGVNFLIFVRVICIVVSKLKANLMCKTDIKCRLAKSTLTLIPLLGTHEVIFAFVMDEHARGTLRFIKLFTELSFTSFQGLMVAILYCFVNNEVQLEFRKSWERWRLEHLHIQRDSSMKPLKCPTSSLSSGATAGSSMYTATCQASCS
T1 sequence (P47871 26-477): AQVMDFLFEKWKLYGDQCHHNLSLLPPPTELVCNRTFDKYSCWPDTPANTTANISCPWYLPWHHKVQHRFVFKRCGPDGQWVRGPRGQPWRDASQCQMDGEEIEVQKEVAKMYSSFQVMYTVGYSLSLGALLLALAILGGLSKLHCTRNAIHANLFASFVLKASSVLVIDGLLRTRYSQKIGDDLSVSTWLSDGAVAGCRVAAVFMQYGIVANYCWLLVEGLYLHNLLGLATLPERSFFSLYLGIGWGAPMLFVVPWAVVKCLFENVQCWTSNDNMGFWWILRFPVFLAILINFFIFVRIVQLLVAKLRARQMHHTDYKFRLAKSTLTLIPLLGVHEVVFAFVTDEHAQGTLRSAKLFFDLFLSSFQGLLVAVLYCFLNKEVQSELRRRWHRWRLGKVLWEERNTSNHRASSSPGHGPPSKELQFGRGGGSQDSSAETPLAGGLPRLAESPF

As for `CC[C@H](C)[C@H](NC(=O)[C@H](Cc1ccccc1)NC(=O)[C@@H](NC(=O)CNC(=O)[C@H](CCC(=O)O)NC(=O)C(C)(C)NC(=O)[C@@H](N)Cc1ccc(O)cc1)[C@@H](C)O)C(=O)N[C@@H](CO)C(=O)N[C@@H](CC(=O)O)C(=O)N[C@@H](Cc1ccc(O)cc1)C(=O)N[C@@H](CO)C(=O)N[C@H](C(=O)N[C@@](C)(CC(C)C)C(=O)N[C@@H](CC(C)C)C(=O)N[C@@H](CC(=O)O)C(=O)N[C@@H](CCCCN)C(=O)N[C@@H](CCCCNC(=O)COCCOCCNC(=O)COCCOCCNC(=O)CC[C@H](NC(=O)CCCCCCCCCCCCCCCCCCC(=O)O)C(=O)O)C(=O)N[C@@H](Cc1c[nH]cn1)C(=O)N[C@@H](CCC(N)=O)C(=O)NC(C)(C)C(=O)N[C@@H](CC(=O)O)C(=O)N[C@@H](Cc1ccccc1)C(=O)N[C@H](C(=O)N[C@@H](CCC(=O)O)C(=O)N[C@@H](Cc1ccncc1)C(=O)N[C@@H](CC(C)C)C(=O)N[C@@H](CC(C)C)C(=O)N[C@@H](CCC(=O)O)C(=O)N[C@@H](C)C(=O)NCC(=O)N1CCC[C@H]1C(=O)N[C@@H](CO)C(=O)N[C@@H](CO)C(=O)NCC(=O)N[C@@H](C)C(=O)N1CCC[C@H]1C(=O)N1CCC[C@H]1C(=O)N1CCC[C@H]1C(=O)N[C@@H](CO)C(N)=O)C(C)C)[C@@H](C)CC` [Example 3], in series [1], the AUCInf/Dose was 1764 hr*kg*nmol/L/nmol, the Cmax/Dose was found to be 12.1 kg*nmol/L/nmol, the CL/F is 13.7 mL/day/kg and the time to peak (Tmax) turned out to be 60 h. The molecule also showed a half-life in series [1] of 88.8 h. For the same molecule, the Ki in series [2] worked out at 338 nM. Besides, the Ki in series [3] worked out at 0.0525 nM. In addition, the inhibitory constant (Ki) in series [4] worked out at 381 nM.

For `CC[C@H](C)[C@H](NC(=O)[C@H](CCCCN)NC(=O)[C@H](CC(=O)O)NC(=O)[C@H](CC(C)C)NC(=O)[C@](C)(CC(C)C)NC(=O)[C@@H](NC(=O)[C@H](CO)NC(=O)[C@H](Cc1ccc(O)cc1)NC(=O)[C@H](CC(=O)O)NC(=O)[C@H](CO)NC(=O)[C@@H](NC(=O)[C@H](Cc1ccccc1)NC(=O)[C@@H](NC(=O)CNC(=O)[C@H](CCC(=O)O)NC(=O)C(C)(C)NC(=O)[C@@H](N)Cc1ccc(O)cc1)[C@@H](C)O)[C@@H](C)CC)[C@@H](C)CC)C(=O)N[C@@H](Cc1c[nH]cn1)C(=O)N[C@@H](CCC(N)=O)C(=O)NC(C)(C)C(=O)N[C@@H](CC(=O)O)C(=O)N[C@@H](Cc1ccccc1)C(=O)N[C@H](C(=O)N[C@@H](CCC(=O)O)C(=O)N[C@@H](Cc1ccc(O)cc1)C(=O)N[C@@H](CCCCNC(=O)COCCOCCNC(=O)COCCOCCNC(=O)CC[C@H](NC(=O)CCCCCCCCCCCCCCCCCCC(=O)O)C(=O)O)C(=O)N[C@@H](CC(C)C)C(=O)N[C@@H](CCC(=O)O)C(=O)NCC(=O)NCC(=O)N1CCC[C@H]1C(=O)N[C@@H](CO)C(=O)N[C@@H](CO)C(=O)NCC(=O)N[C@@H](C)C(=O)N1CCC[C@H]1C(=O)N1CCC[C@H]1C(=O)N1CCC[C@H]1C(=O)N[C@@H](CO)C(N)=O)C(C)C` [Example 5], in series [1], the AUCInf/Dose is 2262 hr*kg*nmol/L/nmol, the Cmax/Dose was 12.0 kg*nmol/L/nmol, the apparent clearance (CL/F) is 10.6 mL/day/kg and the time of peak concentration (Tmax) amounted to 120 h. For the same molecule, the half-life in series [1] is 128 h. Further, the Ki in series [2] stood at 619 nM. For the same molecule, in series [3], the inhibitory constant (Ki) is 0.0771 nM. Further, the inhibition constant Ki in series [4] was more than 913 nM.

Consider `CC[C@H](C)[C@H](NC(=O)[C@H](CCCN)NC(=O)[C@H](CC(=O)O)NC(=O)[C@H](CC(C)C)NC(=O)[C@](C)(CC(C)C)NC(=O)[C@@H](NC(=O)[C@H](CO)NC(=O)[C@H](Cc1ccc(O)cc1)NC(=O)[C@H](CC(=O)O)NC(=O)[C@H](CO)NC(=O)[C@@H](NC(=O)[C@H](Cc1ccccc1)NC(=O)[C@@H](NC(=O)CNC(=O)[C@H](CCC(=O)O)NC(=O)C(C)(C)NC(=O)[C@@H](N)Cc1ccc(O)cc1)[C@@H](C)O)[C@@H](C)CC)[C@@H](C)CC)C(=O)N[C@@H](Cc1c[nH]cn1)C(=O)N[C@@H](CCC(N)=O)C(=O)NC(C)(C)C(=O)N[C@@H](CCC(=O)O)C(=O)N[C@@H](Cc1ccccc1)C(=O)N[C@H](C(=O)N[C@@H](CCC(=O)O)C(=O)N[C@@H](Cc1ccc(O)cc1)C(=O)N[C@@H](CCCCNC(=O)COCCOCCNC(=O)COCCOCCNC(=O)CC[C@H](NC(=O)CCCCCCCCCCCCCCCCCCC(=O)O)C(=O)O)C(=O)N[C@@H](CC(C)C)C(=O)N[C@@H](CCC(=O)O)C(=O)N[C@@H](C)C(=O)NCC(=O)N1CCC[C@H]1C(=O)N[C@@H](CO)C(=O)N[C@@H](CO)C(=O)NCC(=O)N[C@@H](C)C(=O)N1CCC[C@H]1C(=O)N1CCC[C@H]1C(=O)N1CCC[C@H]1C(=O)N[C@@H](CO)C(N)=O)C(C)C` [Example 104] (H-Y[Aib]EGTFISDYSI[αMeL]LD[Orn]IHQ[Aib]EFVEYK([AEEA-AEEA-γGlu-C20 diacid])LEAGPSSGAPPPS-NH2), for which the Ki was more than 960 nM in series [2], 0.134 nM in series [3] and more than 910 nM in series [4].

Turning to `CC[C@H](C)[C@H](NC(=O)[C@H](CO)NC(=O)[C@H](Cc1ccc(O)cc1)NC(=O)[C@H](CC(=O)O)NC(=O)[C@H](CO)NC(=O)[C@@H](NC(=O)[C@](C)(Cc1ccccc1F)NC(=O)[C@@H](NC(=O)CNC(=O)[C@H](CCC(=O)O)NC(=O)[C@H](C)NC(=O)[C@@H](Cc1ccc(O)cc1)NC(C)=O)[C@@H](C)O)[C@@H](C)CC)C(=O)N[C@@H](C)C(=O)N[C@@H](CC(C)C)C(=O)N[C@@H](CC(=O)O)C(=O)N[C@@H](CCCCN)C(=O)N[C@@H](CCCCNC(=O)COCCOCCNC(=O)COCCOCCNC(=O)CC[C@H](NC(=O)CCCCCCCCCCCCCCCCC(=O)O)C(=O)O)C(=O)N[C@@H](Cc1c[nH]cn1)C(=O)N[C@@H](CCC(N)=O)C(=O)NC(C)(C)C(=O)N[C@@H](CCC(=O)O)C(=O)N[C@@H](Cc1ccccc1)C(=O)N[C@H](C(=O)N[C@@H](CC(N)=O)C(=O)N[C@@H](Cc1ccc(O)cc1)C(=O)N[C@@H](CC(C)C)C(=O)N[C@@H](CC(C)C)C(=O)N[C@@H](C)C(=O)NCC(=O)NCC(=O)N1CCC[C@H]1C(=O)N[C@@H](CO)C(=O)N[C@@H](CO)C(=O)NCC(=O)N[C@@H](C)C(=O)N1CCC[C@H]1C(=O)N1CCC[C@H]1C(=O)N1CCC[C@H]1C(=O)N[C@@H](CO)C(N)=O)C(C)C` [Example 30] (Ac-[dY]AEGT[αMePhe(2-F)]ISDYSIALDKK([AEEA-AEEA-γGlu-C18 diacid])HQ[Aib]EFVNYLLAGGPSSGAPPPS-NH2), the inhibition constant (Ki) was found to be 407 nM in series [2], 0.037 nM in series [3] and 26.5 nM in series [4].

In the case of `CC[C@H](C)[C@H](NC(=O)[C@H](CCCN)NC(=O)[C@H](CC(=O)O)NC(=O)[C@H](CC(C)C)NC(=O)[C@](C)(CC(C)C)NC(=O)[C@@H](NC(=O)[C@H](CO)NC(=O)[C@H](Cc1ccc(O)cc1)NC(=O)[C@H](CC(=O)O)NC(=O)[C@H](CO)NC(=O)[C@@H](NC(=O)[C@H](Cc1ccccc1)NC(=O)[C@@H](NC(=O)CNC(=O)[C@H](CCC(=O)O)NC(=O)C(C)(C)NC(=O)[C@@H](N)Cc1ccc(O)cc1)[C@@H](C)O)[C@@H](C)CC)[C@@H](C)CC)C(=O)N[C@@H](Cc1c[nH]cn1)C(=O)N[C@@H](CCC(N)=O)C(=O)NC(C)(C)C(=O)N[C@@H](CCC(=O)O)C(=O)N[C@@H](Cc1ccccc1)C(=O)N[C@H](C(=O)N[C@H](CCC(=O)O)C(=O)N[C@@H](Cc1ccc(O)cc1)C(=O)N[C@@H](CCCCNC(=O)COCCOCCNC(=O)COCCOCCNC(=O)CC[C@H](NC(=O)CCCCCCCCCCCCCCCCCCC(=O)O)C(=O)O)C(=O)N[C@@H](CC(C)C)C(=O)N[C@@H](CCC(=O)O)C(=O)NCC(=O)NCC(=O)N1CCC[C@H]1C(=O)N[C@@H](CO)C(=O)N[C@@H](CO)C(=O)NCC(=O)N[C@@H](C)C(=O)N1CCC[C@H]1C(=O)N1CCC[C@H]1C(=O)N1CCC[C@H]1C(=O)N[C@@H](CO)C(N)=O)C(C)C` [Example 102] (H-Y[Aib]EGTFISDYSI[αMeL]LD[Orn]IHQ[Aib]EFV[dE]YK([AEEA-AEEA-γGlu-C20 diacid])LEGGPSSGAPPPS-NH2), the inhibition constant Ki in series [2] was more than 961 nM; in series [3], 0.164 nM; in series [4], more than 913 nM.

For orientation: CL/F means the apparent clearance, not corrected for the fraction that reaches the circulation. Usually Tmax stands for the time at which the peak concentration occurs. The term half-life denotes the time needed for the level to fall by half in the phase considered. Read a high half-life as slow loss. One may read the Ki as the equilibrium dissociation constant of an inhibitor or competing ligand from its target.

These data come from patent US12723063B2, “GIPR-agonist compounds” (Eli Lilly and Company, priority 2019, dated 2026).
